Measurements published in US7612255B2, “Transgenic plants for mitigating introgression of genetically engineered genetic traits” (priority 1999, dated 2009).

Columns and labels:
red rice = details: fields of transgenic rice bearing the bar gene (Oard et al. 2000); cited from earlier work
[1] = tested on: non-transformed tobacco plants; assay: Seed germination in the presence of kanamycin or imazapyr (tobacco); format: in vivo, Nicotiana tabacum; details: tobacco seeds on Nitsch agar medium; sensitive seedlings stop growing within 10 days
Procedure: Surface sterilized seeds of wild type, the backcross of primary transformants with wild type T0 (=BC), T1, T2, and T3 tobacco plants were planted on either medium. Sensitive seedlings were identified as those that stopped growing within 10 days, forming only short roots and cotyledons, while resistant seedlings grew well, forming long roots and true leaves, continuing their growth past 10 days. The segregation ratio of wild type to TM of each line was calculated. Resistant/dwarfed seedlings were grown to maturity in soil and the plants were analyzed for AHAS resistance (phenotype) and for ahas^R and Δgai insert by PCR (genotype), as described herein above.
Competition of TM transgenics with the wild type, and self competition of each alone: The transgenic TM tobacco was used to simulate a TM introgressed hybrid or transgenic volunteer crop, and the wild type tobacco was used to simulate a non-transgenic crop, weed, or wild plant. The competitive interactions between the transgenic and wild type plants were assessed in two separate internally replicated greenhouse experiments. In both experiments, seeds obtained from the first backcross T1 (═BC1) of a representative TM line T1-7 (pollen recipient) and wild type (pollen donor) were used to grow mixed TM and wild type cultures. […]

[2] = tested on: non-transformed B. napus plants; assay: Seed germination in the presence of kanamycin or imazapyr (oilseed rape); format: in vivo, Brassica napus; details: B. napus seeds on Nitsch agar medium
Procedure: Seed germination in the presence of kanamycin or imazapyr: A discriminatory dose level of Nitsch (Nitsch, Nicotiana. Phytomorphology 1969; 19, 389-404) agar medium containing 150 mg/L kanamycin or 0.3 μM imazapyr inhibiting the growth of non-transformed plants was determined. Surface sterilized seeds of non-transgenic, and TM B. napus plants were planted on either medium. Sensitive seedlings stopped growing within 10 days forming only short roots and cotyledons, while resistant seedlings formed long roots and true leaves and continued their growth. The segregation ratio of non-transgenic to TM of each line was calculated. Resistant/dwarfed seedlings were grown to maturity in soil and the plants were analyzed for AHAS resistance and for ahas^R and Δgai insert by PCR, as described above.
Competition of TM transgenic vs. non-transgenic Brassica napus plants and self competition of each alone: The competitive interactions between the TM transgenic vs. non-transgenic Brassica napus plants were assessed in replicated greenhouse experiments. In the first experiment seeds obtained from the selfed homozygous TM lines T1-J9-4 and -6 were used to grow the TM plants in mixed cultures with the non-transgenic plants in a 1:1 TM/WT ratio. […]

non-transgenic B. napus = assay: Rooting of regenerated plantlets in the presence of kanamycin; format: in vivo, Brassica napus; details: root formation of regenerated B. napus plantlets
Source text: Transformation of oilseed rape (B. napus cv. Westar): The Agrobacterium tumefaciens-mediated transformation protocol of Moloney, et al (Plant Cell Reports 1989; 8,238-242) using excised cotyledonary petioles of B. napus cv. Westar seedlings was followed with some modifications. Excised cotyledons of axenic B. napus cv. Westar seedlings were inoculated by dipping the cut end of a 2 mm petiole in a suspension of A. tumefaciens strain EHA105 or EHA 101 containing the same TM 1 construct described in detail in Example 1. Non-transformed cotyledons served as negative controls. After co-cultivation for 2.5 days, the cotyledons were regenerated on Murashige-Skoog (MS) medium containing 500 mg/L carbenicillin to kill A. tumefaciens and 20 mg/L kanamycin as the primary plant selectable marker. Some healthy calli developed on the cut petioles and regenerated into green shoots which were then sub-cultured onto shoot elongation medium containing 300 mg/L carbenicillin and either 20 mg/L kanamycin or 0.2 μM imazapyr herbicide as secondary selectable marker of the putative transformants. The shoots were then rooted, potted, and transferred to the greenhouse to grow flower and set seed. The putative transformants were tested by PCR (FIG. 5) and by AHAS enzymatic assay (as described in Example 1 herein above) (FIG. 6) to confirm TM transformation. […]

[3] = tested on: Δgai-transformed male sterile tobacco plants; format: in vivo, Nicotiana tabacum; details: kinetin foliar spray; normal fertilization and seed development
Source text: Seed production on Δgai male sterile plants: The Δgai effect on pollen production is not irreversible: treatment of plants with cytokinins results in plants producing fertile pollen, and capable of self fertilization. Hemizygous imazapyr resistant and semi-dwarf primary TM tobacco transformants (lines 7, 8, and 10) were transferred to soil and grown to flowering. […] The chemicals were in an aqueous solution containing 0.1% (v/v) Tween 20 surfactant. The control group received the surfactant solution only, or none at all. All applications were made through foliar spray every other day for 2 weeks. Female fertility was assessed by backcrossing wild type pollen donors were backcrossed to one plant from each line without kinetin application (FIG. 4). At maturity, the capsules formed on each plant were counted and the dry weight of seed set of up to 5 capsules per each plant was measured. Normal seed set was observed.
Anthers were collected from three flowers per plant. A minimum of three plants per biotype were analyzed. Pollen viability was scored by staining the pollen with cotton blue stain [Phillips, R. L. in G. Clark, ed. […]
Floral bud and pistil development of the TM transgenic plants were similar to that of wild type plants. […] Pollen viability, scored by staining tests, of these restored lines was >93% compared to approximately 0% of non-treated plants (FIG. 4). […]

**Q.** With `CP(=O)(O)CCC(N)C(=O)O` (stereo not drawn) [glufosinate] as the compound, how does the “Control of red rice” value (red rice) read?
**A.** Its value is “easily controlled”.

**Q.** For `CC(C)C1(C)N=C(c2ncccc2C(=O)O)NC1=O` (stereo not drawn) [imazapyr], which “Discriminatory dose level inhibiting the growth of non-transformed plants” value [1] is on record?
**A.** The value was 0.3 µM.

**Q.** What does the source list for `NC[C@H]1O[C@H](O[C@H]2[C@H](O)[C@@H](O[C@H]3O[C@H](CO)[C@@H](O)[C@H](N)[C@H]3O)[C@H](N)C[C@@H]2N)[C@H](O)[C@@H](O)[C@@H]1O` [kanamycin]?
**A.** Discriminatory dose level inhibiting the growth of non-transformed plants [2]: 150 mg/L; Discriminatory dose level inhibiting the growth of non-transformed plants [1]: 85.8 µM; Kanamycin concentration which inhibits the non-transgenics (non-transgenic B. napus): 20 mg/L

**Q.** For `c1coc(CNc2ncnc3[nH]cnc23)c1` [kinetin], which “Restoration of fertility of male sterile TM transgenic plants” value [3] is on record?
**A.** Its value is “restored the fertility”.
